# Experiments:
# [1] = Accumulation in the liver; assay type: in vivo; details: unlike the natural retinyl esters
# [2] = system: breast cancer; experiment: Prevention of breast cancer in rats, oral dosing; assay type: in vivo; details: oral doses of 32 and 64 mg/kg/day
# [3] = LD50 in Swiss mice; details: mouse, in vivo
# Procedure: The drug is administered at regular intervals, conveniently at meal times or once daily.
# [4] = Target specificity in concentrating at the breast; details: in vivo
# [5] = Toxicity compared to retinyl acetate; details: in vivo
# [6] = U.S. Pat. No. 4,108,880; cited from earlier work
# [7] = system: MNU-induced mammary cancer; experiment: Inhibition of mammary carcinogenesis induced by N-methyl-N-nitrosourea (MNU), rat breast cancer; assay type: in vivo, Female Sprague-Dawley rats; details: Table III
# Text: On the basis of the encouraging results summarized in the foregoing example, N-(4-hydroxyphenyl)-all-trans-retinamide was compared to retinyl acetate in the experimental assay for efficacy against rat breast cancer described in Nature Vol. 267, pp 620-621 (June 16, 1977), which measures the ability to inhibit mammary carcinogenesis induced by N-methyl-N-nitrosourea (MNU). The results of further extension of the tests, comparing the 4-hydroxyphenyl retinamide only to placebo, after 18 weeks with high dose MNU and 21 weeks with low dose MNU, are set forth in Table III. The results using these two different levels of MNU and two dietary levels of retinoid are shown graphically in FIGS. 1 and 2 after 18 weeks of testing.
# Animals: Female Sprague-Dawley rats obtained from ARS Sprague-Dawley.
# Crystalline MNU. Rats received 2 I.V. injections at 50 and 57
# High dose is 50 mg/kg; low dose 15 mg/kg.
# Retinoids were dissolved in solvent and blended into the diets.
# placed on diets 3 days after last MNU injection.
# 50 gm trioctanoin:ethanol (3:1), 0.05 ml Tenox 20, 0.05 ml
# 50 gm retinoid solvent/kg diet.
# High dose is 50 mg/kg; low dose 15 mg/kg. Rats on high dose of
# sacrificed after 18 weeks.
# Placebo: 50 gm retinoid solvent/kg diet.
# [8] = system: MNU-induced mammary cancer; experiment: as above; assay type: in vivo, Female Sprague-Dawley rats
# [9] = Systemic toxicity; details: in vivo
# [10] = system: epithelial cancer; experiment: Effectiveness in preventing epithelial cancer in mammals; assay type: in vivo; details: at reasonable dose levels
# [11] = compared with sunscreening amounts of retinoic acid; U.S. Pat. No. 4,108,880; cited from earlier work
# [12] = system: tracheal epithelium; experiment: Reversal of keratinized squamous metaplastic lesions of vitamin A deficiency in tracheal organ culture; assay type: cell-based; details: for % of Cultures with Keratin and Keratohyaline Granules / % of Cultures with Respective Amounts of Squamous Metaplasia: None / % of Cultures with Respective Amounts of Squamous Metaplasia: Marked / % of Cultures with Respective Amounts of Squamous Metaplasia: Mild / % of Cultures with Respective Amounts of Squamous Metaplasia: Minimal / % of Cultures with Respective Amounts of Squamous Metaplasia: Severe: collected day 10; for % of Cultures with Respective Amounts of Squamous Metaplasia: Marked: marked = 10-40% squamous; for % of Cultures with Respective Amounts of Squamous Metaplasia: Mild: mild = 2-10% squamous; for % of Cultures with Respective Amounts of Squamous Metaplasia: Minimal: minimal = less than 2% squamous; for % of Cultures with Respective Amounts of Squamous Metaplasia: Severe: severe = more than 40% squamous
# Text: N-(4-hydroxyphenyl)-all-trans-retinamide was compared with retinoic acid in an in vitro screening model for identifying retinoids having activity in preventing carcinogenesis in epithelial tissue. The experimental method, which is described in Experimental Lung Cancer:Intern'l Symp, 575-82, 1974, involves reversal of keratinization in tracheal organ culture.
# In brief summary, in the absence of retinoic acid or a synthetic retinoid having similar activity, the test organ culture of tracheal epithelium undergoes abnormal differentiation. Addition of small concentrations of retinoic acid (as low as 10^-9 M) will cause reversion to normal tracheal epithelium. Test compounds are compared in activity to retinoic acid or another active standard both as regards squamous metaplasia and keratin production, both of which are measures of abnormal development of the epithelial culture.
# In carrying out the tests reported in Table I, all tracheas were cultured for the first 3 days in medium without retinoid. At this time, some tracheas were collected, while the rest were cultured for a further week in medium containing either no retinoid, or retinoid added at the concentrations shown. These tracheas were collected on the 10th day of culture. Cultures were graded as to the percentage of their total epithelium showing squamous metaplasia on eight cross sections from the middle of each trachea. If more than 40% of the total epithelial length was squamous, it was graded as having severe squamous metaplasia; between 10-40% was graded as marked; between 2-10% was graded as mild; and less than 2% was graded as minimal.
# [13] = system: chemical carcinogenesis; details: in vivo; cited from earlier work
# [14] = system: breast cancer; details: in vivo; cited from earlier work
# [15] = in vivo; cited from earlier work
# [16] = 18 weeks, MNU high dose (50 mg/kg), 391 mg/kg diet
# [17] = 21 weeks, MNU low dose (15 mg/kg), 391 mg/kg diet
# [18] = Table II, 73 days, MNU high dose (50 mg/kg), 391 mg/kg diet
# [19] = Table II, 73 days, MNU high dose (50 mg/kg), 782 mg/kg diet
# [20] = Table II, 73 days, MNU low dose (15 mg/kg), 391 mg/kg diet
# [21] = Table II, 73 days, MNU low dose (15 mg/kg), 782 mg/kg diet
# [22] = Table II, 73 days, saline, 391 mg/kg diet
# [23] = Table II, 73 days, saline, 782 mg/kg diet
# [24] = Table III, 18 weeks, MNU high dose (50 mg/kg), 782 mg/kg diet
# [25] = Table III, 21 weeks, MNU low dose (15 mg/kg), 782 mg/kg diet
# [26] = Table III, saline, 391 mg/kg diet
# [27] = Table III, saline, 782 mg/kg diet
smiles,measurement,setting,value
"CC1=C(/C=C/C(C)=C/C=C/C(C)=C/C(=O)Nc2ccc(O)cc2)C(C)(C)CCC1 [4-Hydroxyphenyl Retinamide, N-(4-hydroxyphenyl)-all-trans-retinamide]",accumulation in the liver,[1],does not accumulate in the liver in appreciable amounts
same,prevention of breast cancer in rats,[2],very effective in preventing breast cancer in rats
same,LD50,[3]; ip,436 mg/kg
same,LD50,[3]; po,> 400 mg/kg
same,target specificity in concentrating at the breast,[4],adequate target specificity in concentrating at the breast
same,toxicity relative to retinyl acetate,[5],less toxic
same,ultraviolet absorption,[6],good ultraviolet absorber
same,Mammary Tumor Incidence,[7]; [16],13/16
same,Mammary Tumor Incidence (%),[7]; [16],81%
same,Mammary Tumor Incidence (%),"[7]; 18 weeks, MNU high dose (50 mg/kg), 782 mg/kg diet",64%
same,Mammary Tumor Incidence (%),[7]; [17],12%
same,Total Number of Tumors,[7]; [17],5
same,Mammary Tumor Incidence,"[7]; saline, 391 mg/kg diet",0/10
same,Total Number of Tumors,"[7]; saline, 782 mg/kg diet",0
same,efficacy relative to retinyl acetate,[8]; MNU-induced mammary carcinogenesis,substantially as efficacious as retinyl acetate
same,Mammary Tumor Incidence,[8]; [18],5/16
same,Mammary Tumor Incidence (%),[8]; [18],31%
same,Mammary Tumor Incidence,[8]; [19],0/17
same,Mammary Tumor Incidence (%),[8]; [19],0%
same,Mammary Tumor Incidence,[8]; [20],0/40
same,Mammary Tumor Incidence (%),[8]; [20],0%
same,Mammary Tumor Incidence,[8]; [21],0/39
same,Mammary Tumor Incidence (%),[8]; [21],0%
same,Mammary Tumor Incidence,[8]; [22],0/10
same,Mammary Tumor Incidence (%),[8]; [22],0%
same,Mammary Tumor Incidence,[8]; [23],0/10
same,Mammary Tumor Incidence (%),[8]; [23],0%
same,Total Number of Tumors,"[8]; Table III, 18 weeks, MNU high dose (50 mg/kg), 391 mg/kg diet",48
same,Mammary Tumor Incidence,[8]; [24],11/17
same,Total Number of Tumors,[8]; [24],37
same,Mammary Tumor Incidence,"[8]; Table III, 21 weeks, MNU low dose (15 mg/kg), 391 mg/kg diet",5/40
same,Mammary Tumor Incidence,[8]; [25],3/39
same,Mammary Tumor Incidence (%),[8]; [25],8%
same,Total Number of Tumors,[8]; [25],4
same,Mammary Tumor Incidence (%),[8]; [26],0%
same,Total Number of Tumors,[8]; [26],0
same,Mammary Tumor Incidence,[8]; [27],0/10
same,Mammary Tumor Incidence (%),[8]; [27],0%
same,systemic toxicity,[9],low systemic toxicity
same,effectiveness in preventing epithelial cancer in mammals,[10],good effectiveness in preventing epithelial cancer in mammals
same,irritating effect on skin,[11],does not have the irritating effect on skin that would be expected from the use of sunscreening amounts of retinoic acid
same,efficacy relative to retinoic acid,[12]; 10^-8 M,at least as efficacious as retinoic acid
same,% of Cultures with Keratin and Keratohyaline Granules,[12]; 10^-8 M,0%
same,% of Cultures with Respective Amounts of Squamous Metaplasia: None,[12]; 10^-8 M,20%
same,% of Cultures with Respective Amounts of Squamous Metaplasia: Marked,[12]; 10^-8 M,0%
same,% of Cultures with Respective Amounts of Squamous Metaplasia: Mild,[12]; 10^-8 M,0%
same,% of Cultures with Respective Amounts of Squamous Metaplasia: Minimal,[12]; 10^-8 M,80%
same,% of Cultures with Respective Amounts of Squamous Metaplasia: Severe,[12]; 10^-8 M,0%
same,efficacy relative to retinoic acid,[12]; 10^-9 M,nearly as efficaceous
same,% of Cultures with Keratin and Keratohyaline Granules,[12]; 10^-9 M,40%
same,% of Cultures with Respective Amounts of Squamous Metaplasia: None,[12]; 10^-9 M,20%
same,% of Cultures with Respective Amounts of Squamous Metaplasia: Marked,[12]; 10^-9 M,0%
same,% of Cultures with Respective Amounts of Squamous Metaplasia: Mild,[12]; 10^-9 M,30%
same,% of Cultures with Respective Amounts of Squamous Metaplasia: Minimal,[12]; 10^-9 M,20%
same,% of Cultures with Respective Amounts of Squamous Metaplasia: Severe,[12]; 10^-9 M,30%
same,efficacy,[12]; 10^-10 M,virtually inefficacious
same,% of Cultures with Keratin and Keratohyaline Granules,[12]; 10^-10 M,100%
same,% of Cultures with Respective Amounts of Squamous Metaplasia: None,[12]; 10^-10 M,0%
same,% of Cultures with Respective Amounts of Squamous Metaplasia: Marked,[12]; 10^-10 M,75%
same,% of Cultures with Respective Amounts of Squamous Metaplasia: Mild,[12]; 10^-10 M,12%
same,% of Cultures with Respective Amounts of Squamous Metaplasia: Minimal,[12]; 10^-10 M,0%
same,% of Cultures with Respective Amounts of Squamous Metaplasia: Severe,[12]; 10^-10 M,12%
CC1=C(/C=C/C(C)=C/C=C/C(C)=C\C(=O)O)C(C)(C)CCC1 [13-cis-retinoic acid],potency in preventing chemical carcinogenesis relative to retinoic acid or the natural retinyl esters,[13],more potent in preventing chemical carcinogenesis
same,effectiveness against breast cancer in the rat model,[14],has not been found to be particularly effective against breast cancer in the rat model
same,toxicity relative to retinoic acid or the natural retinyl esters,[15],considerably less toxic than retinoic acid or the natural retinyl esters

# — patent publication US4323581A, “Method of treating carcinogenesis” (priority 1978, dated 1982)
